Laboratory results as given in patent US20240343677A1, “L-ASPARTIC ACID N, N-DIACETIC ACID TETRASODIUM SALT AND PREPARATION METHOD THEREFOR” (HEFEI ALL-PLUS ENVIRONMENTAL TECNOLOGY CO., LTD., priority 2021, published 2024).

Assays:
[1] = Chelating ability for metal ions compared with other chelating agents; assay type: physicochemical; conditions: same condition as other chelating agents (FIG. 5)
[2] = Efficiency of removing calcium carbonate water scales; conditions: compared with other amino polymeric chelating agents (FIG. 6)
Excerpt: 5. The ASDA can also be used for preventing water scale and precipitation and removing water scale.

[3] = Protocol: FIG. 4 is a thermogravimetric analysis graph of the ASDA prepared in Example 1 of the present disclosure;
3. Thermal stability and application environment adaptability of the L-aspartic acid N,N-diacetic acid tetrasodium salt (ASDA) prepared by the preparation method provided in Example 1 were detected. […] The thermal stability of ASDA-Na4 powder was measured by thermogravimetric analysis (TGA) and differential scanning calorimetry (DSC).

[4] = Biodegradability of ASDA in sewage according to OECD 301B standard; conditions: 28 days, third-party detection, ASDA of Example 1
Protocol: FIG. 1 is a graph of biodegradability detection results of ASDA prepared in Example 1 of the present disclosure tested in a stable sewage environment;
1. […] The detection was carried out by a third-party detection mechanism.

[5] = Solubility in water of different pH values and in concentrated sodium hydroxide solution; assay type: physicochemical; conditions: ASDA of Example 1
Excerpt: It can also correspondingly reduce transportation and warehousing costs, and alleviate the problem of high transportation and warehousing costs.

O=C([O-])C[C@@H](C(=O)[O-])N(CC(=O)[O-])CC(=O)[O-].[Na+].[Na+].[Na+].[Na+] [ASDA, L-aspartic acid N,N-diacetic acid tetrasodium salt]
comprehensive performance in chelating metal ions [1]: excellent | efficiency of removing CaCO3 scales [2]: the best biodegradable chelate for removing CaCO3 scales | moisture lost ([3]; ASDA solid, all moisture lost at about 250° C., TGA): about 4% | temperature above which rapid decomposition begins ([3]; ASDA-Na4 powder, TGA/DSC): above 380 °C | 28-day biodegradability [4]: ≥ 60% | solubility under a strong alkali condition ([5]; concentrated sodium hydroxide solution (FIG. 3)): high solubility | solubility in low pH ([5]; water, low pH (FIG. 2)): high solubility

O=C(O)CN(CCN(CC(=O)O)CC(=O)O)CC(=O)O [EDTA, ethylenediaminetetraacetic acid, reference compound]
thermal stability (thermally more stable than ASDA) [3]: > 150 °C

O=C(O)CN(CC(=O)O)CC(=O)O [NTA, nitrilotriacetic acid, reference compound]
thermal stability (thermally more stable than ASDA) [3]: > 150 °C
